In patent US20120121574A1, “ANTIMICROBIAL, ANTIVIRAL, ANTICANCER AND IMMUNOMODULATORY PEPTIDES AND USES THEREFORE” (priority 2010, published 2012):
Where no end group is shown, it is not given here.

Experiments:
S. aureus 29213 strain = test: CFU assay against S. aureus; format: cell-based, Staphylococcus aureus
Experimental: (§1) In vitro activity of N10K against S. aureus 29213 strain. The microbicidal activity of N10K peptide against S. aureus has been evaluated by a conventional CFU assay. Cells of S. aureus 29213 have been incubated at 37° C. for 5 hours in the presence of N10K at the concentration of 50, 45 or 40 micrograms/ml, or in distilled water as control growth. After the incubation period, the cell suspensions have been plated on Mueller Hinton agar, then incubated at 37° C. and observed for CFU enumeration after 24 hours.
as §1, with “T11F” for “N10K”, “bactericidal” for “microbicidal”, “40” for “45”, “30” for “40”
In vitro activity of H4L against S. aureus 29213 strain. The bactericidal activity of H4L peptide against S. aureus has been evaluated by a conventional CFU) assay. […]
In vitro activity of MoA VHCDR3 against S. aureus 29213 strain. The microbicidal activity of MoA VHCDR3 peptide against S. aureus has been evaluated by a conventional CFU assay. […]

M. furfur 101 strain = test: CFU assay against M. furfur; format: cell-based, Malassezia furfur
Experimental: After the incubation period, the cell suspensions were plated on Sabouraud dextrose agar added with Tween 20 (1%), then incubated at 30° C. and observed for CFU enumeration after 72 hours.
After the incubation period, the cell suspensions have been plated on Sabouraud dextrose agar added with Tween 20 (1%), then incubated at 30° C. and observed for CFU enumeration after 72 hours.

C. albicans CA-6 strain = test: murine model of systemic candidiasis; format: in vivo, Balb/c mice
Experimental: CFU recovery from the kidneys of mice was determined 7 and 12 days after fungal infection.
Mice were infected intravenously with the opportunistic fungus C. albicans and treated with mouse VHCDR3 or VLCDR3 (used as a negative control) intraperitoneally 4 hr before (200 micrograms), and 1 (100 micrograms) and 2 (100 micrograms) days after infection. Animal survival and fungal burden in kidneys were evaluated in different groups of mice. […] Error bars, s.e.m.

[1] = test system: K. pneumoniae ATCC 700603 strain; test: CFU assay against K. pneumoniae; format: cell-based, Klebsiella pneumoniae
C. albicans cells = test: direct candidacidal activity in vitro (strain not stated); format: cell-based, Candida albicans
[2] = test system: peritoneal murine macrophages (PM); test: in vitro immunomodulatory activity on murine peritoneal macrophages (PM); format: cell-based, mouse
Experimental: In vitro immunomodulatory activity of MoA VHCDR3 on murine immune cells. FIGS. 47-51 are graphs showing TNF-α and IL-6 production by PM and PMN stimulated with MoA CDRs and mouse MoA VHCDR3 uptake by different cell populations. Cells were cultured in the presence or absence (NS) of human and/or mouse CDRs, lipopolisaccharide (LPS), or negative control peptide (NC) (all 10 micrograms/ml) for 18 hr. Both PM and PMN cell populations were 5×10^6/ml. After incubation, TNF-α and IL-6 levels were evaluated in culture supernatants by specific ELISA assays (* P<0.05 treated vs untreated cells, n=7). In FIG. 51, dendritic cells (DC), PM, PMN, and T cells (all 1×10^6/ml) were incubated for 1 hr in the presence or absence (NS) of biotinylated (b)-MoA VHCDR3 or b-NC (both 10 micrograms/ml). After incubation, permeabilized cells were reacted with FITC-labelled mAb to biotin (b) and analyzed by FACScan flow cytometry. Data are reported as the percentage of positive cells *, P<0.05 (b-VHCDR3 treated vs untreated cells, n=5). Error bars, s.e.m. FIGS. 52A and B show graphs and colored cell staining micrograph of kinetic of VHCDR3 uptake by PM. PM (1×10^6/ml) were incubated for different times with b-VHCDR3 or b-NC (all 10 micrograms/ml). After incubation, permeabilized cells were reacted with FITC-labelled mAb to biotin and analyzed by FACScan flow cytometry. Data are reported as the mean fluorescence intensity (MFI) and percentage of positive cells (FIG. 52A) (* P<0.05 b-VHCDR3-treated vs untreated cells, n=7). Error bars, s.e.m. In selected experiments, cells were incubated for 1 hr as above described, reacted with FITC-labelled mAb to biotin in the presence of Evans' Blue as a counter stain, and subsequently examined under fluorescent light microscopy (FIG. 52B). Note the green fluorescence of b-VHCDR3 treated cells. Original magnification 20×. In FIGS. 53 and 54 is shown the phospho-Akt activation and TNF-α production in PM stimulated with MoA VHCDR3. PM (3×10^6/ml) were stimulated for 1 hr in the presence or absence (NS) of MoA VHCDR3, LPS, an irrelevant control peptide (NC) or a scrambled peptide (SP) (all 10 micrograms/ml). After incubation, cell lysates were subjected to Western blotting. Membranes were incubated with Abs to pAkt and Akt; pAkt was normalized against Akt (FIG. 53)*, P<0.05 (treated vs untreated cells, n=5). […] PM (5×10^6/ml) were stimulated for 18 hr as above described. After incubation, TNF-α level was evaluated in culture supernatants by specific ELISA assays. (FIG. 54)*, P<0.05 (treated vs untreated cells, n=5). In FIGS. 55 and 56 is shown the phospho-IkBα activation and TNF-α gene expression in PM stimulated with MoA VHCDR3. PM (3×10^6/ml) were stimulated for 1 hr in the presence or absence (NS) of wortmannin (4 nM), MoA VHCDR3, LPS or NC (all 10 micrograms/ml). After incubation, cell lysates were subjected to Western blotting. Membranes were incubated with Abs to pIkBα and IkBα; pIkBα was normalized against IkBα. (FIG. 55)*, P<0.05 (treated versus untreated cells, n=5); †, P<0.05 (wortmannin-treated vs wortmannin-untreated cells, n=5). For testing the expression level of TNF-α gene, PM (1×10^6/ml) were cultured for 1, 6 and 18 hr as above described. After incubation, total RNA was isolated and analyzed for mRNA expression with RT-PCR (FIG. 56). Transcript copy numbers were determined by qPCR using cDNA as a template. Copy numbers were normalized against the copy number of the GADPH gene (B). […]

A. fumigatus 1163 strain = test: CFU assay against A. fumigatus conidia; format: cell-based, Aspergillus fumigatus
Experimental: After the incubation period, the conidial suspensions have been plated on Sabouraud dextrose agar, then incubated at 30° C. and observed for CFU enumeration after 48 hours.
After the incubation period, the cell suspensions have been plated on Sabouraud dextrose agar, then incubated at 30° C. and observed for CFU enumeration after 48 hours.

[3] = test system: P. aeruginosa ATCC 25853 strain; test: CFU assay against P. aeruginosa; format: cell-based, Pseudomonas aeruginosa
[4] = test system: E. coli ATCC 25922 strain; test: CFU assay against E. coli; format: cell-based, Escherichia coli
[5] = test system: C. albicans SC5314 strain
Experimental: In vitro activity of N10K against C. albicans SC5314 strain. The candidacidal activity of N10K peptide against C. albicans was assessed by a conventional colony forming unit (CFU) assay as previously described (Polonelli et al., 2003; Manfredi et al., 2005). Briefly, cells of C. albicans SC5314 were incubated at 37° C. for 6 hours (hr) in the presence of N10K at the concentration indicated of 20, 12.5 or 6.25 microgram/ml, or in distilled water as control (C). After incubation, cell suspensions were plated on Sabouraud dextrose agar and incubated at 30° C. for 48 hours when CFU were counted (** P<0.01 for N10K treated versus untreated cells, by t test). […]
The alanine-substituted derivatives (asd), defined according to the position held by the alanine-substituted aminoacid, were tested against C. albicans by a conventional colony forming unit (CFU) as previously described (Polonelli et al., 2003). Briefly, cells of C. albicans SC5314 were incubated at 37° C. for 6 hours in the presence of N10K or N10K asd at different scalar concentrations or distilled water as control. After incubation, cell suspensions were plated on Sabouraud dextrose agar and incubated at 30° C. for 48 hours when CFU were counted. Based on several independent replications, the EC50 value of each peptide was calculated by nonlinear regression analysis using Graph Pad Prism 4.01 software, San Diego, Calif., USA. […]
In vitro microbicidal activity of N10K derivative with 2 amino acid substitutions, or 80% sequence identity with native N10K, namely peptide Seq Id. No. 25 was tested against Candida albicans SC5314 as determined by Colony Forming Unit assay.

Human monocytes = test: in vitro immunomodulatory activity on human monocytes; format: cell-based; conditions: 10 micrograms/ml, 18 hr, ELISA
Experimental: Human monocytes or PMN (both 10×10^6/ml) were incubated in RPMI 1640 plus 10% FCS for 18 hr or 6 hr respectively in the presence or in the absence (NS) of LPS, negative control (NC) and peptides (all 10 micrograms/ml). After incubation culture supernatants were collected and tested for cytokines production by specific ELISA. […] Monocytes were incubated for 30 minutes in presence or absence (NS) of NC or N10K (both 10 micrograms/ml) or Cytochalasin D (30 μM). After incubation cells have been stimulated for 30 minutes with non opsonized h.i. […] The percentage of phagocytosis (FIG. 18A) and the medium number of yeast particles adhered or ingested by each monocyte (phagocytic index) (FIG. 18B) have been determined by cytofluorimetric analysis. […] PBMC have been incubated 30 minutes in presence or absence (NS) of NC or N10K (both 10 micrograms/ml). After incubation PBMC have been stimulated for 18 h with LPS (10 micrograms/ml) or h.i. […] The levels of IL-12p40 and IL-6 have been evaluated in the supernatants by ELISA Kit.
After incubation culture supernatants were collected and tested for cytokines production by specific ELISA. […]

[6] = peptide 100 micrograms/ml, 5 hours 37° C.

Sequence: G Q Y G N L W F A Y (GQYGNLWFAY) [MoA VHCDR3, CDR3 fragment of the H chain of a murine IgM mAb directed to difucosyl human blood group A substance]
- Activity (S. aureus 29213 strain; Table III, in vitro): cidal
- bactericidal activity (CFU) (S. aureus 29213 strain; [6]): showed bactericidal activity
- Activity (M. furfur 101 strain; Table III, in vitro): cidal
- fungicidal activity (CFU) (M. furfur 101 strain; peptide 100 micrograms/ml, 6 hours 30° C.): showed fungicidal activity
- Activity (C. albicans CA-6 strain; Table III, in vivo, Fungus, for MoAVHCDR3 the wrapped cell reads Indirectly cidal up regulation of TNF-α, TLR-4): Indirectly
- CFU recovery from kidneys (C. albicans CA-6 strain; intraperitoneally 200 micrograms 4 hr before, 100 micrograms 1 and 2 days after infection, 5, 7 and 12 days after infection, versus negative control mice): impressive decrease
- survival of infected mice (C. albicans CA-6 strain; intraperitoneally 200 micrograms 4 hr before, 100 micrograms 1 and 2 days after infection, versus untreated or MoA VLCDR3 treated): significant increase in survival
- Activity ([1]; Table III, in vitro): cidal
- bactericidal activity (CFU) [1, 6]: showed bactericidal activity
- activity against C. albicans cells in vitro (C. albicans cells): ineffective
- TLR-4 expression ([2]; 10 micrograms/ml): up-regulates TLR-4
- Akt activation (phospho-Akt) ([2]; 10 micrograms/ml, 1 hr, Western blotting): induces Akt activation
- TNF-α production by PM ([2]; 10 micrograms/ml, ELISA): stimulate PM to produce TNF-α
- TNF-α mRNA ([2]; 1 hr post stimulation, 10 micrograms/ml): detected
- Activity (Stimulation of TNF-α, IL-6) ([2]; Table III, in vitro, Immune cells): Stimulation
- Activity (A. fumigatus 1163 strain; Table III, in vitro): cidal
- fungicidal activity (CFU) (A. fumigatus 1163 strain; peptide 100 micrograms/ml, 18 hours 30° C.): showed fungicidal activity
- Activity ([3]; Table III, in vitro): cidal
- bactericidal activity (CFU) [3, 6]: showed bactericidal activity
- Activity ([4]; Table III, in vitro): cidal
- bactericidal activity (CFU) [4, 6]: showed bactericidal activity

Sequence: NAVSLTCLVK [asd Q2A N10K, N A V S L T C L V K]
- EC50 ([5]; SC5314, 6 h): 2300 nM
- EC50asd/EC50N10K ([5]; Table IX): 2.30
- IL-6 production by human monocytes (Human monocytes): strong enhancement
